How the values were obtained:
[1] = Half life in Sprague-Dawley rat liver microsomes at 6 ug/ml by HPLC method; format: ADME
[2] = target: T1, Sterol O-acyltransferase 2 (Mus musculus) (UniProt O88908); assay: Ratio of compound IC50 to PRD 043 IC50 for ACAT2 in mouse hepatic microsomal membranes; format: cell membranes; conditions: Liver, Microsomal Membrane
T1 sequence (whole entry): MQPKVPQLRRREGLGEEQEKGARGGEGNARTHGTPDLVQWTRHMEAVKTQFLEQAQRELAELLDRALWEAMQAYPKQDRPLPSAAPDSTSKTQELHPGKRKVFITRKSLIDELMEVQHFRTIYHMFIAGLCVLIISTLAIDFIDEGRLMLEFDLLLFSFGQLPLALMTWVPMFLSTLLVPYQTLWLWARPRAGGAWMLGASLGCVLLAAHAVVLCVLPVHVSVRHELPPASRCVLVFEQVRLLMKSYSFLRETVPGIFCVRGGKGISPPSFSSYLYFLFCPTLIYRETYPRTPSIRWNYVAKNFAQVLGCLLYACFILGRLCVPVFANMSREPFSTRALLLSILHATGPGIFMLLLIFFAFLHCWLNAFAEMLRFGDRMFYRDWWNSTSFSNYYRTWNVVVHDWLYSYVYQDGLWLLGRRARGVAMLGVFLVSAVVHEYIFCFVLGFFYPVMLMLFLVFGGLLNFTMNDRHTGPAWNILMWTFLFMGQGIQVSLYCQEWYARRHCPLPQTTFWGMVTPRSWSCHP

| half-life at 6 ug/ml [1] | Ratio IC50 [2] | SMILES |
| --- | --- | --- |
| > 9 h | < 20 | Cc1cccc([C@@H]2OC[C@@]3(C)[C@@H]4C[C@H](OC(=O)c5ccc(F)cc5)[C@@]5(C)Oc6cc(-c7cccnc7)oc(=O)c6[C@H](O)[C@@H]5[C@@]4(C)CC[C@@H]3O2)c1 |
| > 9 h | < 20 | CC(=O)O[C@H]1CC[C@@]2(C)[C@@H](C[C@H](OC(C)=O)[C@@]3(C)Oc4cc(-c5cccnc5)oc(=O)c4[C@H](O)[C@H]23)[C@]1(C)COC(=O)c1ccccc1 |
| > 9 h | < 20 | Cc1ccccc1[C@@H]1OC[C@@]2(C)[C@@H]3C[C@H](OC(=O)c4ccc(F)cc4)[C@@]4(C)Oc5cc(-c6cccnc6)oc(=O)c5[C@H](O)[C@@H]4[C@@]3(C)CC[C@@H]2O1 |
| > 9 h | < 20 | COc1ccc(CNC(=O)[C@@]2(C)[C@@H](OC(C)=O)CC[C@]3(C)[C@H]4[C@@H](O)c5c(cc(-c6cccnc6)oc5=O)O[C@]4(C)[C@@H](OC(=O)c4ccc(C#N)cc4)C[C@H]32)c(OC)c1 |

— ChEMBL document CHEMBL3880418, “Pyripyropene derivative having ACAT2 inhibiting activity and stable to metabolizing enzymes” (2013)
